Measured values reported in patent US12448369B2 (Edgewise Therapeutics, Inc., priority 2023, dated 2025).
Marks after values point to notes of the source that are not given here.

Experiments:
[1] = tested on: Porcine atria myofibrils (atrial myosin ATPase); assay: Myofibril ATPase assay, porcine atria myofibrils; format: biochemical; details: porcine atria myofibrils
Protocol: (§1) Example 1. Myofibril ATPase Assay
(§2) Myofibril ATPase assays are known in the art to be useful in evaluating small molecules for the treatment of HCM and other cardiac indications. Myosin ATPase activity is assessed by using a coupled reaction system, in which ADP generated by the myosin ATPase function is coupled to the disappearance of NADH through the pyruvate kinase/lactate dehydrogenase (PK-LDH) system. ATPase activity produces ADP, which is used as a substrate for PK to produce pyruvate and regenerate ATP. The pyruvate is then used as a substrate by LDH to oxidize NADH to NAD+. The rate of the reaction is monitored through the time-dependent disappearance of NADH using absorbance at 340 nm, which, when the couple system is in stoichiometric excess, is directly correlated to the ATPase activity of the myosin. Inhibition of ATPase activity by the assayed compounds is indicated by a reduced rate of NADH loss, relative to vehicle-treated controls, over the experimental time window. Activation of ATPase activity by the assayed compounds is indicated by an increased rate of NADH loss, relative to vehicle-treated controls, over the experimental time window. Rabbit Psoas, Porcine atria, and Porcine ventricle are the primary sources of myofibril material.
(§3) Materials: The following stock solutions and reagents were used in the Myofibril ATPase Assay:
(§4) Stock Solutions of pCa buffer. Combine PIPES, CaCl2, and EGTA solutions with water. Adjust pH to 7.0 and bring final volume to 100 mL.
(§5) Buffer A & Buffer B. Prepare buffers A and B according to the table below.
(§6) Myofibril ATPase Assay Procedure: BSA, ATP, NADH, PEP, and DTT solutions were thawed at room temperature, then transferred to ice. Pellet-frozen myofibrils were transferred with approximately twice the required volume into a sufficiently large tube and capped. Myofibrils were thawed by rolling in a water bath for approximately 15 min at room temperature and cooled on ice. Buffers A and B were prepared by adjusting volumes as necessary for required number of wells and stored on ice. 0.5 μL of the compounds to be assayed were added into wells. 25 μL of Buffer A was dispensed into the wells, followed by 25 μL of Buffer B. The wells were measured for absorbance at 340 nm, using a kinetic protocol in which the wells are read every 1.5-2 min for 75 min. Assay data analysis was performed using a python script that filtered the raw data to retain those points falling between a starting and ending time and between a maximum and minimum absorbance, then used the filtered time-domain 340 nm absorbance data in each well to calculate a slope via linear regression analysis in units of mAU/min. Compound slopes were normalized between 100% and 0% activity, where 100% represented the slope of wells containing only compound vehicle, and fit to a 4-parameter logistic model. In addition to the fit parameters, the EC25% values were calculated, relative to the 100% normalized value. Additionally, the Y125 values were calculated for compounds that increased myosin ATP-ase activity. Fit parameters, calculated effective concentrations, filtered raw data, and calculated slopes were exported, in addition to compound-specific graphs of normalized ATPase activity versus concentration in μM. Each value reported in Table 5, Table 6, and Table 7 is either a Y75 value or a Y125 value. Values without a double cross sign, ‡, are Y75 values, which reflect the concentration required to reduce myosin ATP-ase activity by 25% (e.g., Y-axis activity value is 75% of initial value), relative to myosin ATP-ase activity in the absence of exogenous compound.
(§7) Myofibrils from various animals and tissue types were acquired from a variety of sources: rabbit psoas muscle was purchased from Pel-Freez Biologicals (Rogers, AR) and porcine cardiac muscle was purchased from Exemplar Genetics. All myofibrils were prepared using a method based upon those described in Herrmann et al. (1993) and summarized here. […]

[2] = tested on: Rabbit Psoas myofibrils (skeletal myosin ATPase); assay: Myofibril ATPase assay, rabbit psoas (skeletal) myofibrils; format: biochemical; details: rabbit psoas myofibrils
Protocol: as §1, §2, §3, §4, §5, §6
Skeletal Myofibril Isolation:
as §7

[3] = target: T1, Porcine ventricle myofibrils (ventricular myosin ATPase) (Sus scrofa, UniProt P79293); assay: Myofibril ATPase assay, porcine ventricle myofibrils; format: biochemical, porcine (Yucatan minipigs); details: porcine ventricle myofibrils
T1 construct: Myofibrils from porcine cardiac muscle was isolated from the left ventricle of Yucatan minipigs; tissue Exemplar Genetics; host or cells: left ventricle of Yucatan minipigs, myofibrils prepared in house
Protocol: as §1, §2, §3, §4, §5, §6
Cardiac Myofibril Isolation:
Myofibrils from porcine cardiac muscle was isolated from the left ventricle of Yucatan minipigs. Myofibrils were prepared using a method based upon those described in Herrmann et al. (1993) and summarized here. […]

[4] = Y75 value (75% activity relative to no compound)

T1 sequence (P79293 whole entry): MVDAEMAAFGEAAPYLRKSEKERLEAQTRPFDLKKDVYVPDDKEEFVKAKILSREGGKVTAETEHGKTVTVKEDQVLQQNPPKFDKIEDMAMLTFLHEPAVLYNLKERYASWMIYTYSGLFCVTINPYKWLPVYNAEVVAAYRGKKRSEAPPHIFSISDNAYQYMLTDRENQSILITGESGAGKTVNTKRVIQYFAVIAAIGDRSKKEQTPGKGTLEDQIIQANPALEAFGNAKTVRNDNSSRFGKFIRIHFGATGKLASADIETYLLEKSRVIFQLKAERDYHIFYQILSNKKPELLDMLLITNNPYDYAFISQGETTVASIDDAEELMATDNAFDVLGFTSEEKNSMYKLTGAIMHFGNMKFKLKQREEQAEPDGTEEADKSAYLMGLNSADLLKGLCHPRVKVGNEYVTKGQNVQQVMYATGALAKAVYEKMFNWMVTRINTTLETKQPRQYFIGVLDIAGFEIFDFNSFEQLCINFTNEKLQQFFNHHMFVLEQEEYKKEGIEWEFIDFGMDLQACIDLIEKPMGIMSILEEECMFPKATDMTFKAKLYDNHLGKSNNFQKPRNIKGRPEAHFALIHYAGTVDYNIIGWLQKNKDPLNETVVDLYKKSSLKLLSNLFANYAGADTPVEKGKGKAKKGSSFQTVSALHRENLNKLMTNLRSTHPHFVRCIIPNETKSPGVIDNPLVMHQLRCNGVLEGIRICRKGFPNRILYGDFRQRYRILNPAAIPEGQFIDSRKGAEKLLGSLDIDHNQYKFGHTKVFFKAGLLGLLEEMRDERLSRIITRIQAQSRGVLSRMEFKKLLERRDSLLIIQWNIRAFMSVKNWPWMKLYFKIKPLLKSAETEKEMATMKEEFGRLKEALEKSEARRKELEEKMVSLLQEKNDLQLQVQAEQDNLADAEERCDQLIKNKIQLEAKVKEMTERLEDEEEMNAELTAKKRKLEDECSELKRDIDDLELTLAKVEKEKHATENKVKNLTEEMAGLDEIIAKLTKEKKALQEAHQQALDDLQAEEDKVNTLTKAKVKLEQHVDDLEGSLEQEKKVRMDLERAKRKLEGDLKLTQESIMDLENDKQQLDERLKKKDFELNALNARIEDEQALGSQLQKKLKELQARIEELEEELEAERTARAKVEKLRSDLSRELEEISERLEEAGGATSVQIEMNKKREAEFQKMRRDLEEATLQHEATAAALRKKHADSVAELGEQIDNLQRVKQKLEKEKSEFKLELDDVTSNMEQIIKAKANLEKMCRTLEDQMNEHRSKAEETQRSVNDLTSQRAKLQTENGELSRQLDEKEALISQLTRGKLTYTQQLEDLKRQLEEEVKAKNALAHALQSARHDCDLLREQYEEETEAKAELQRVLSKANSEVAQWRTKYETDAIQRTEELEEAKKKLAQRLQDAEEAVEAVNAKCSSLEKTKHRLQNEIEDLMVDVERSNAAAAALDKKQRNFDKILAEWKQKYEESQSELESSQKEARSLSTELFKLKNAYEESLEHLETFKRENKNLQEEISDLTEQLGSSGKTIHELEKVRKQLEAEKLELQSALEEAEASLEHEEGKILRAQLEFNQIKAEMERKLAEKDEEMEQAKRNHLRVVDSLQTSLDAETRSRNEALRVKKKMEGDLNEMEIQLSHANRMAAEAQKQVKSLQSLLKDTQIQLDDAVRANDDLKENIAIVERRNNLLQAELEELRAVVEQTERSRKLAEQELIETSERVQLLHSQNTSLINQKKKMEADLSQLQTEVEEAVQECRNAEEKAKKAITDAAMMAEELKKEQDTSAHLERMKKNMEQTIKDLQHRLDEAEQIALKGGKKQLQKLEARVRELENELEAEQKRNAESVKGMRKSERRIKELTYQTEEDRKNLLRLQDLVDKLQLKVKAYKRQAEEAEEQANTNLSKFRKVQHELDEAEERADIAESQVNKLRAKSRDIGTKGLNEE

Structure (SMILES) | Atrial EC25 ([1]; Y75 value (no ‡ mark)) | Skeletal EC25 ([2]; Y75 value (no ‡ mark)) | Ventricular EC25 ([3]; Y75 value (no ‡ mark)) | Atrial EC25 [1, 4] | Skeletal EC25 ([2]; Y75 value) | Ventricular EC25 ([3]; Y75 value) | Skeletal EC25 (Y125 value, marked ‡) ([2]; Y125 value, not a Y75 value)
C[C@H](NC(=O)C(F)(F)c1cc2c(C#N)c(F)ccc2[nH]c1=O)c1ncc(C#N)cc1F (single isomer, unassigned) [Compound 2530] | 0.20 µM | 0.08 µM | 0.21 µM | – | – | – | –
C[C@H](NC(=O)[C@@H](C)c1cc2nc(C#N)ccc2[nH]c1=O)c1ccc(F)cc1F (single isomer, unassigned) [compound 258] | – | – | – | 100.00 µM | 100.00 µM | 63.55 µM | –
Cc1nc(C#N)ncc1[C@H](C)NC(=O)Cc1cc2cc(F)c(F)cc2[nH]c1=O [compound 1097] | 1.11 µM | 0.15 µM | 1.56 µM | – | – | – | –
Cc1nccc2[nH]c(=O)c(C(F)(F)C(=O)N[C@@H](C)c3ncc(C#N)cc3F)c(C)c12 (single isomer, unassigned) [compound 3517] | – | – | – | 1.12 µM | 0.38 µM | 2.11 µM | –
C[C@H](NC(=O)Cc1cc2cc(F)c(F)cc2[nH]c1=O)c1ncc(C#N)cn1 (single isomer, unassigned) [compound 2036] | 100.00 µM | 100.00 µM | 100.00 µM | – | – | – | –
C[C@H](NC(=O)Cc1c(C2CC2)c2cc(F)ccc2[nH]c1=O)c1ccc(F)cc1F [compound 114] | 3.86 µM | 0.06 µM | 4.54 µM | – | – | – | –
Cc1nccc2[nH]c(=O)c([C@H](C)C(=O)N[C@@H](C)c3ncc(C#N)cc3F)c(C)c12 (single isomer, unassigned) [compound 194] | – | – | – | 5.87 µM | 1.22 µM | 100.00 µM | –
Cc1ccccc1[C@@H](C)NC(=O)Cc1c(C)c2c(C)nccc2[nH]c1=O (single isomer, unassigned) [compound 326] | – | – | – | 100.00 µM | 100.00 µM | 100.00 µM | –
Cc1nc(C#N)ncc1[C@H](C)NC(=O)Cc1c(C)c2c(C)nccc2[nH]c1=O [compound 465] | – | – | – | 100.00 µM | 47.72 µM | 100.00 µM | –
Cc1c(CC(=O)N[C@@H](C)c2ccc(C#N)cn2)c(=O)[nH]c2ccnc(C(F)(F)F)c12 [compound 156] | – | – | – | 0.33 µM | 0.21 µM | 3.12 µM | –
Cc1c(C(F)(F)C(=O)N[C@H](C)c2ccc(F)cc2F)c(=O)[nH]c2ccc(F)cc12 [compound 4815] | 1.05 µM | 1.04 µM | 100.00 µM | – | – | – | –
C[C@H](NC(=O)C1(c2cc3c(F)c(F)ccc3[nH]c2=O)CC1)c1ncc(C#N)cc1F (single isomer, unassigned) [compound 2593] | 0.19 µM | 1.15 µM | 1.00 µM | – | – | – | –
C[C@@H](NC(=O)Cc1c(C2CC2)c2c(F)c(F)ccc2[nH]c1=O)c1ccc(C#N)nn1 (single isomer, unassigned) [compound 2065] | 100.00 µM | 1.10 µM | 100.00 µM | – | – | – | –
C[C@@H](NC(=O)C1(c2cc3cc(F)ccc3[nH]c2=O)CC1)c1nccc(C#N)n1 (single isomer, unassigned) [compound 2507] | 4.10 µM | 19.51 µM | 100.00 µM | – | – | – | –
Cc1c(CC(=O)N[C@@H](C)c2ccc(F)cc2F)c(=O)[nH]c2ccc(OCC(F)(F)F)nc12 [compound 400] | – | – | – | 1.55 µM | 0.36 µM | 100.00 µM | –
C[C@@H](NC(=O)Cc1c(C2CC2)c2cc(F)ccc2[nH]c1=O)c1ccc(C#N)nn1 (single isomer, unassigned) [compound 2053] | 100.00 µM | 12.45 µM | 100.00 µM | – | – | – | –
Cc1c(CC(=O)N[C@@H]2COc3cc(C#N)cnc32)c(=O)[nH]c2ccc(F)cc12 [compound 1062] | 3.49 µM | 9.26 µM | 6.56 µM | – | – | – | –
Cc1c(C(F)(F)C(=O)N[C@H](C)c2ncc(C#N)cn2)c(=O)[nH]c2ccc(F)c(C#N)c12 (single isomer, unassigned) [compound 2521] | 0.32 µM | 0.41 µM | 1.83 µM | – | – | – | –
Cc1c(CC(=O)N[C@@H](C)c2ccc(F)cc2F)c(=O)[nH]c2ccc(O)nc12 [compound 299] | – | – | – | 10.21 µM | 17.50 µM | 100.00 µM | –
CCOc1nccc2[nH]c(=O)c([C@H](C)C(=O)N[C@@H](C)c3ccc(F)cc3F)c(C(F)(F)F)c12 (single isomer, unassigned) [compound 415] | – | – | – | 2.22 µM | 0.13 µM | 12.58 µM | –
Cc1c([C@H](C)C(=O)N[C@@H](C)c2ccc(C#N)cc2F)c(=O)[nH]c2ccnc(C#N)c12 (single isomer, unassigned) [compound 174] | – | – | – | 0.08 µM | 0.08 µM | 0.55 µM | –
Cc1c(C(C)C(=O)N[C@@H](C)c2ccc(F)cc2F)c(=O)[nH]c2ccnc(C#N)c12 (stereo partly drawn) [compound 363] | – | – | – | 0.36 µM | 0.04 µM | 2.83 µM | –
Cc1c(CC(=O)N[C@@H](C)c2ccc(C#N)cn2)c(=O)[nH]c2ccncc12 [compound 467] | – | – | – | 100.00 µM | 16.00 µM | 100.00 µM | –
Cc1c(F)ccc2[nH]c(=O)c(CC(=O)N[C@H](C)c3ncc(F)cc3F)c(C#N)c12 [compound 1147] | 2.84 µM | 1.01 µM | 0.94 µM | – | – | – | –
Cc1c(Cl)ccc2[nH]c(=O)c(CC(=O)N[C@@H](C)c3ncc(C#N)cc3F)c(C)c12 (single isomer, unassigned) [compound 2046] | 0.05 µM | – | 0.10 µM | – | – | – | –
Cc1cc(F)cnc1[C@H](C)NC(=O)C(F)(F)c1c(C)c2cc(F)ccc2[nH]c1=O (single isomer, unassigned) [compound 4808] | – | 100.00 µM | 100.00 µM | – | – | – | –
C[C@H](NC(=O)Cc1cc2c(O)nccc2[nH]c1=O)c1ccc(F)cc1F [compound 3013] | – | – | – | – | 100.00 µM | 100.00 µM | –
Cc1c(C(F)(F)C(=O)N[C@H]2COc3cc(C#N)cc(F)c32)c(=O)[nH]c2ccc(F)cc12 (single isomer, unassigned) [compound 2554] | 0.09 µM | – | 0.20 µM | – | – | – | –
Cc1cc(F)cnc1[C@@H](C)NC(=O)C(F)(F)c1c(C)c2cc(F)ccc2[nH]c1=O (single isomer, unassigned) [compound 4807] | – | 0.82 µM | 1.39 µM | – | – | – | –
C[C@H](NC(=O)[C@H](C)c1cc2c(C3CC3)nccc2[nH]c1=O)c1ccc(F)cc1F (single isomer, unassigned) [compound 3506] | – | – | – | – | – | 100.00 µM | 108.50‡ μM
